# Test results: patent US20170283396A1, “DIAMINOHETEROARYL SUBSTITUTED INDAZOLES” (Bayer Pharma Aktiengesellschaft, priority 2013, published 2017)
# Read-outs that look alike come from different tables or passages of the source.
# Assays:
# [1] = biological target: T1, catalytic domain of human Bub1 (amino acids 704-1085) (Homo sapiens, UniProt O43683); test: Bub1 kinase assay (TR-FRET); type: biochemical
# T1 construct: catalytic domain of human Bub1 (amino acids 704-1085); His6 (N); made in house; host or cells: Hi5 insect cells
# Experimental: To this end, 100-fold concentrated compound solutions (in DMSO) were previously prepared by serial dilution (1:3.4) of 2 mM stocks in a clear low volume 384-well source microtiter plate (Greiner Bio-One, Frickenhausen, Germany), from which 50 nl of compounds were transferred into a black low volume test microtiter plate from the same supplier. […] The resulting mixture (5 μL final volume) was incubated at […] during 60 min., and the reaction was stopped by the addition of 5 μL of an aqueous EDTA-solution (50 mM EDTA, in 100 mM HEPES pH 7.5 and 0.2% (w/v) bovine serum albumin) which also contained the TR-FRET detection reagents (0.2 μM streptavidin-XL665 [Cisbio Bioassays, Codolet, France] and 1 nM anti-phosho-Serine antibody [Merck Millipore, cat. #35-001] and 0.4 nM LANCE EU-W1024 labeled anti-mouse IgG antibody [Perkin-Elmer, product no. AD0077, alternatively a Terbium-cryptate-labeled anti-mouse IgG antibody from Cisbio Bioassays can be used]). The stopped reaction mixture was further incubated 1 h at 22° C. in order to allow the formation of complexes between peptides and detection reagents. Subsequently, the amount of product was evaluated by measurement of the resonance energy transfer from the Eu-chelate-antibody complex recognizing the Phosphoserine residue to the streptavidin-XL665 bound to the biotin moiety of the peptide. […] IC50 values were calculated by fitting the normalized inhibition data to a 4-parameter logistic equation (Minimum, Maximum, IC50, Hill; Y=Max+(Min−Max)/(1+(X/IC50)Hill)).
# HeLa cell line = test: Proliferation assay (HeLa cell line); type: cell-based; conditions: Homo sapiens, 96 h, read-out: Biological Assay 2: Proliferation assay (HeLa cell line) median IC50
# Experimental: Cultivated tumor cells (cells were ordered from ATCC, except HeLa-MaTu and HeLa-MaTu-ADR, which were ordered from EPO-GmbH, Berlin) were plated at a density of 1000 to 5000 cells/well, depending on the growth rate of the respective cell line, in a 96-well multititer plate in 200 μL of their respective growth medium supplemented 10% fetal calf serum. After 24 hours, the cells of one plate (zero-point plate) were stained with crystal violet (see below), while the medium of the other plates was replaced by fresh culture medium (200 μL), to which the test substances were added in various concentrations (0 μM, as well as in the range of 0.001-10 μM; the final concentration of the solvent dimethyl sulfoxide was 0.5%). The cells were incubated for 4 days in the presence of test substances. Cell proliferation was determined by staining the cells with crystal violet: the cells were fixed by adding 20 μl/measuring point of an 11% glutaric aldehyde solution for 15 minutes at room temperature. After three washing cycles of the fixed cells with water, the plates were dried at room temperature. The cells were stained by adding 100 μl/measuring point of a 0.1% crystal violet solution (pH 3.0). After three washing cycles of the stained cells with water, the plates were dried at room temperature. The dye was dissolved by adding 100 μl/measuring point of a 10% acetic acid solution. Absorption was determined by photometry at a wavelength of 595 nm. The change of cell number, in percent, was calculated by normalization of the measured values to the absorption values of the zero-point plate (=0%) and the absorption of the untreated (0 μm) cells (=100%). The IC50 values were determined by means of a 4 parameter fit using the company's own software.
# [2] = TR-FRET, 10 μM ATP, 1 μM peptide substrate, read-out: Biological Assay 1: Bub1 kinase assay median IC50
# [3] = cervical cancer, 4 days incubation, crystal violet staining
# T1 sequence (O43683 704-1085): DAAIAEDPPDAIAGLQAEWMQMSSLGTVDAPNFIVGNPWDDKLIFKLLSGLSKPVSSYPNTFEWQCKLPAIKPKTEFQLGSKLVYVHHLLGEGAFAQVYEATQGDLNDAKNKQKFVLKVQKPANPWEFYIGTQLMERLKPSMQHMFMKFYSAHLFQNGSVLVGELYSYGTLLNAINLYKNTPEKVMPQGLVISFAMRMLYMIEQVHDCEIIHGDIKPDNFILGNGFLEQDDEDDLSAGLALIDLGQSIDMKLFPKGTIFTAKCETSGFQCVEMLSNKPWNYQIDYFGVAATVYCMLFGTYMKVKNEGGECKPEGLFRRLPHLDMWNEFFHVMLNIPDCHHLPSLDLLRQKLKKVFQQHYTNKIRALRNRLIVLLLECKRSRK
"IC50 [1, 2]",IC50 (HeLa cell line),IC50 [1],IC50 (HeLa cell line; [3]),Structure (SMILES)
8.3 nM,3800 nM,,,"CCOc1cc(F)c(Cn2nc(-c3nc(N)c(OC)c(Nc4ccncc4)n3)c3ccccc32)c(F)c1 [Example 2-3-2, 2-[1-(4-ethoxy-2,6-difluorobenzyl)-1H-indazol-3-yl]-5-methoxy-N-(pyridin-4-yl)pyrimidine-4,6-diamine]"
5.3 nM,7800 nM,,,"CCOc1cc(F)c(Cn2nc(-c3nc(N)cc(Nc4ccncn4)n3)c3ccccc32)c(F)c1 [Example 2-3-5, 2-[1-(4-ethoxy-2,6-difluorobenzyl)-1H-indazol-3-yl]-N-(pyrimidin-4-yl)pyrimidine-4,6-diamine]"
6.5 nM,,,,"CCOc1cc(F)c(Cn2nc(-c3nc(N)c(OC)c(Nc4ccncn4)n3)c3ccccc32)c(F)c1 [Example 2-3-6, 2-[1-(4-ethoxy-2,6-difluorobenzyl)-1H-indazol-3-yl]-5-methoxy-N-(pyrimidin-4-yl)pyrimidine-4,6-diamine]"
6.6 nM,9000 nM,,,"CCOc1cc(F)c(Cn2nc(-c3nc(N)c(N4CCOCC4)c(Nc4ccncn4)n3)c3ccccc32)c(F)c1 [Example 2-3-7, 2-[1-(4-ethoxy-2,6-difluorobenzyl)-1H-indazol-3-yl]-5-(morpholin-4-yl)-N-(pyrimidin-4-yl)pyrimidine-4,6-diamine]"
7.2 nM,3900 nM,,,"CCOc1cc(F)c(Cn2nc(-c3nc(N)c(OCCOC)c(Nc4ccncc4)n3)c3ccccc32)c(F)c1 [Example 2-3-10, 2-[1-(4-ethoxy-2,6-difluorobenzyl)-1H-indazol-3-yl]-5-(2-methoxyethoxy)-N-(pyridin-4-yl)pyrimidine-4,6-diamine]"
5.2 nM,3700 nM,,,"CCOc1cc(F)c(Cn2nc(-c3nc(N)c(OCCOC)c(Nc4ccncn4)n3)c3ccccc32)c(F)c1 [Example 2-3-11, 2-[1-(4-ethoxy-2,6-difluorobenzyl)-1H-indazol-3-yl]-5-(2-methoxyethoxy)-N-(pyrimidin-4-yl)pyrimidine-4,6-diamine]"
11 nM,7800 nM,,,"CCOc1cc(F)c(Cn2nc(-c3nc(N)c(NC(=O)COC)c(Nc4ccncc4)n3)c3ccccc32)c(F)c1 [Example 2-3-13, N-{4-amino-2-[1-(4-ethoxy-2,6-difluorobenzyl)-1H-indazol-3-yl]-6-(pyridin-4-ylamino)pyrimidin-5-yl}-2-methoxyacetamide]"
7.9 nM,≥ 10000 nM,,,"CCOc1cc(F)c(Cn2nc(-c3nc(N)c(NC(=O)COC)c(Nc4ccncn4)n3)c3ccccc32)c(F)c1 [Example 2-3-14, N-{4-amino-2-[1-(4-ethoxy-2,6-difluorobenzyl)-1H-indazol-3-yl]-6-(pyrimidin-4-ylamino)pyrimidin-5-yl}-2-methoxyacetamide]"
,,,≥ 10000 nM,"CCOc1cc(F)c(Cn2nc(-c3nc(Nc4ccncn4)c(OCCOC)c(Nc4ccncn4)n3)c3ccccc32)c(F)c1 [Example 2-4-7, 2-[1-(4-ethoxy-2,6-difluorobenzyl)-1H-indazol-3-yl]-5-(2-methoxyethoxy)-N,N′-di(pyrimidin-4-yl)pyrimidine-4,6-diamine]"

# Continued, compound first:
Structure (SMILES),"IC50 [1, 2]",IC50 (HeLa cell line),IC50 [1],IC50 (HeLa cell line; [3])
"Nc1cc(Nc2ccncc2)nc(-c2nn(Cc3ccccc3F)c3ccccc23)n1 [Example 2-1-1, 2-[1-(2-fluorobenzyl)-1H-indazol-3-yl]-N-(pyridin-4-yl)pyrimidine-4,6-diamine]",19 nM,3600 nM,,
"CC(=O)Nc1cc(Nc2ccncc2)nc(-c2nn(Cc3ccccc3F)c3ccccc23)n1 [Example 2-2-1, N-{2-[1-(2-fluorobenzyl)-1H-indazol-3-yl]-6-(pyridin-4-ylamino)pyrimidin-4-yl}acetamide]",,,> 20000 nM,≥ 10000 nM
"COCC(=O)Nc1cc(Nc2ccncc2)nc(-c2nn(Cc3ccccc3F)c3ccccc23)n1 [Example 2-2-2, N-{2-[1-(2-fluorobenzyl)-1H-indazol-3-yl]-6-(pyridin-4-ylamino)pyrimidin-4-yl}-2-methoxyacetamide]",96 nM,≥ 10000 nM,,
"CC(=O)Nc1cc(N(c2ccncc2)c2ccncc2)nc(-c2nn(Cc3ccccc3F)c3ccccc23)n1 [Example 2-2-3, N-{6-(dipyridin-4-ylamino)-2-[1-(2-fluorobenzyl)-1H-indazol-3-yl]-pyrimidin-4-yl}acetamide]",18000 nM,,,
"COCC(=O)Nc1cc(N(c2ccncc2)c2ccncc2)nc(-c2nn(Cc3ccccc3F)c3ccccc23)n1 [Example 2-2-4, N-{6-(dipyridin-4-ylamino)-2-[1-(2-fluorobenzyl)-1H-indazol-3-yl]pyrimidin-4-yl}-2-methoxyacetamide]",,,> 20000 nM,
"CCOc1cc(F)c(Cn2nc(-c3nc(N)cc(Nc4ccncc4)n3)c3ccccc32)c(F)c1 [Example 2-3-1, 2-[1-(4-ethoxy-2,6-difluorobenzyl)-1H-indazol-3-yl]-N-(pyridin-4-yl)pyrimidine-4,6-diamine]",6.4 nM,1300 nM,,
"CCOc1cc(F)c(Cn2nc(-c3nc(N)c(N4CCOCC4)c(Nc4ccncc4)n3)c3ccccc32)c(F)c1 [Example 2-3-3, 2-[1-(4-ethoxy-2,6-difluorobenzyl)-1H-indazol-3-yl]-5-(morpholin-4-yl)-N-(pyridin-4-yl)pyrimidine-4,6-diamine]",4.3 nM,3600 nM,,
"CCNC(=O)Nc1nc(-c2nn(Cc3c(F)cc(OCC)cc3F)c3ccccc23)nc(Nc2ccncc2)c1N1CCOCC1 [Example 2-3-4, 1-{2-[1-(4-ethoxy-2,6-difluorobenzyl)-1H-indazol-3-yl]-5-(morpholin-4-yl)-6-(pyridin-4-ylamino)pyrimidin-4-yl}-3-ethylurea]",,,130 nM,≥ 10000 nM
"CCNC(=O)Nc1nc(-c2nn(Cc3c(F)cc(OCC)cc3F)c3ccccc23)nc(Nc2ccncn2)c1N1CCOCC1 [Example 2-3-8, 1-{2-[1-(4-ethoxy-2,6-difluorobenzyl)-1H-indazol-3-yl]-5-(morpholin-4-yl)-6-(pyrimidin-4-ylamino)pyrimidin-4-yl}-3-ethylurea]",,,280 nM,> 10000 nM
"CCOc1cc(F)c(Cn2nc(-c3nc(N)nc(Nc4ccncc4)n3)c3ccccc32)c(F)c1 [Example 2-3-9, 6-[1-(4-ethoxy-2,6-difluorobenzyl)-1H-indazol-3-yl]-N-(pyridin-4-yl)-1,3,5-triazine-2,4-diamine]",5.8 nM,2900 nM,,
"CCOc1cc(F)c(Cn2nc(-c3nc(Nc4ccncc4)cc(Nc4ccncc4)n3)c3ccccc32)c(F)c1 [Example 2-4-1, 2-[1-(4-ethoxy-2,6-difluorobenzyl)-1H-indazol-3-yl]-N,N′-di(pyridine-4-yl)pyrimidine-4,6-diamine]",81 nM,,,
"CCOc1cc(F)c(Cn2nc(-c3nc(Nc4ccncn4)c(N4CCOCC4)c(Nc4ccncn4)n3)c3ccccc32)c(F)c1 [Example 2-4-4, 2-[1-(4-ethoxy-2,6-difluorobenzyl)-1H-indazol-3-yl]-5-(morpholin-4-yl)-N,N′-di(pyrimidin-4-yl)pyrimidine-4,6-diamine]",,,98 nM,
"CCOc1cc(F)c(Cn2nc(-c3nc(Nc4ccncc4)c(OCCOC)c(Nc4ccncc4)n3)c3ccccc32)c(F)c1 [Example 2-4-6, 2-[1-(4-ethoxy-2,6-difluorobenzyl)-1H-indazol-3-yl]-5-(2-methoxyethoxy)-N,N′-di(pyridin-4-yl)pyrimidine-4,6-diamine]",,,,≥ 10000 nM
"CCOc1cc(F)c(Cn2nc(-c3nc(Nc4ccncc4)c(NS(=O)(=O)C(F)(F)F)c(Nc4ccncc4)n3)c3ccccc32)c(F)c1 [Example 2-4-11, N-{2-[1-(4-ethoxy-2,6-difluorobenzyl)-1H-indazol-3-yl]-4,6-bis(pyridin-4-ylamino)pyrimidin-5-yl}-1,1,1-trifluoromethanesulfonamide]",2100 nM,,,
